Results: ChEMBL document CHEMBL1149404, “Design and synthesis of substituted phenylpropanoic acid derivatives as human peroxisome proliferator-activated receptor alpha/delta dual agonists” (Bioorg Med Chem Lett, 2006)

Tests used:
[1] = target: T1, Peroxisome proliferator-activated receptor gamma (Homo sapiens, UniProt P37231); assay: Agonist activity at PPARgamma transfected in HEK293 cells; format: functional, cell-based
T1 sequence (P37231 whole entry): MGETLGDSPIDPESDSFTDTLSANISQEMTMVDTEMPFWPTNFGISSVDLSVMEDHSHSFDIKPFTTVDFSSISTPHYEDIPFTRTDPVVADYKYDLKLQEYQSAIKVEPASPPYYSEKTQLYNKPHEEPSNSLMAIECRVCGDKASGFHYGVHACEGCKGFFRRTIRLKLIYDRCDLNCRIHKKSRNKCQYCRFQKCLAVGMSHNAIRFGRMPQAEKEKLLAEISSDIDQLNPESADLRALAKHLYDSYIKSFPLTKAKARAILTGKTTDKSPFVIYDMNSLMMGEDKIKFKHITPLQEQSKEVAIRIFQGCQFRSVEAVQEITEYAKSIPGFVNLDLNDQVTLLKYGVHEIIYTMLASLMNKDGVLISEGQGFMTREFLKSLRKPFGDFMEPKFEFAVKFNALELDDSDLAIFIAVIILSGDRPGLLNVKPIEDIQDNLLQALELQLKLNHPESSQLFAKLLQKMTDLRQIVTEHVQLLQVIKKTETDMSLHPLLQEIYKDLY

[2] = target: T2, Peroxisome proliferator-activated receptor alpha (Homo sapiens, UniProt Q07869); assay: Agonist activity at PPARalpha transfected in HEK293 cells; format: functional, cell-based
T2 sequence (Q07869 whole entry): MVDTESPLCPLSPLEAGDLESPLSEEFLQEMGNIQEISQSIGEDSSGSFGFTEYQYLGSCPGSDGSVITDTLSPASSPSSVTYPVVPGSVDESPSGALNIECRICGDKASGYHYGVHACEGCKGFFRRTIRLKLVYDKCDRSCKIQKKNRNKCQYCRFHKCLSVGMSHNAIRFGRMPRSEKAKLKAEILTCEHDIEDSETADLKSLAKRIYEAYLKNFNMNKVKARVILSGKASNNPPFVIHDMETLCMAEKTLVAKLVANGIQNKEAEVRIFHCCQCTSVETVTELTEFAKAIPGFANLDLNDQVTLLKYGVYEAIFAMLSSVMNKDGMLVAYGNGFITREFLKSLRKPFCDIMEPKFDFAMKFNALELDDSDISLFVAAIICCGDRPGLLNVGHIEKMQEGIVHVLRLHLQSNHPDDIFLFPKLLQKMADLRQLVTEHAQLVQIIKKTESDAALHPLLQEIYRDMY

[3] = target: T3, Peroxisome proliferator-activated receptor delta (Homo sapiens, UniProt Q03181); assay: Agonist activity at PPARdelta transfected in HEK293 cells; format: functional, cell-based
T3 sequence (Q03181 whole entry): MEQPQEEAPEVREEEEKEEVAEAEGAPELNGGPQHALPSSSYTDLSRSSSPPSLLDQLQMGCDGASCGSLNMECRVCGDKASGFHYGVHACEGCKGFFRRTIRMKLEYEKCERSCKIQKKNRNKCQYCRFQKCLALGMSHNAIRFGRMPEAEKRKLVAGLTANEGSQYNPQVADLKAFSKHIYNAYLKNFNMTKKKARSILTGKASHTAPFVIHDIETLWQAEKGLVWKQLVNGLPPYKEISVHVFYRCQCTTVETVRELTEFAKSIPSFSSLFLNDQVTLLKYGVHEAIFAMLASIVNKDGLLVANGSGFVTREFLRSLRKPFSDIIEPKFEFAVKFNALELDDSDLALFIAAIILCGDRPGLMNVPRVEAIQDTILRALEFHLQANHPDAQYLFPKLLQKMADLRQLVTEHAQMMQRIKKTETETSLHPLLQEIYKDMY

[4] = target: T2, Peroxisome proliferator-activated receptor alpha; assay: Agonist activity at PPARalpha transfected in HEK293 cells at 1 uM; format: functional, cell-based
[5] = target: T3, Peroxisome proliferator-activated receptor delta; assay: Agonist activity at PPARdelta transfected in HEK293 cells at 1 uM; format: functional, cell-based
[6] = target: T1, Peroxisome proliferator-activated receptor gamma; assay: Agonist activity at PPARgamma transfected in HEK293 cells at 1 uM; format: functional, cell-based
[7] = target: T4, Peroxisome proliferator-activated receptor alpha (Mus musculus, UniProt P23204); assay: Agonist activity at mouse PPARalpha transfected in HEK293 cells; format: functional, cell-based
T4 sequence (P23204 whole entry): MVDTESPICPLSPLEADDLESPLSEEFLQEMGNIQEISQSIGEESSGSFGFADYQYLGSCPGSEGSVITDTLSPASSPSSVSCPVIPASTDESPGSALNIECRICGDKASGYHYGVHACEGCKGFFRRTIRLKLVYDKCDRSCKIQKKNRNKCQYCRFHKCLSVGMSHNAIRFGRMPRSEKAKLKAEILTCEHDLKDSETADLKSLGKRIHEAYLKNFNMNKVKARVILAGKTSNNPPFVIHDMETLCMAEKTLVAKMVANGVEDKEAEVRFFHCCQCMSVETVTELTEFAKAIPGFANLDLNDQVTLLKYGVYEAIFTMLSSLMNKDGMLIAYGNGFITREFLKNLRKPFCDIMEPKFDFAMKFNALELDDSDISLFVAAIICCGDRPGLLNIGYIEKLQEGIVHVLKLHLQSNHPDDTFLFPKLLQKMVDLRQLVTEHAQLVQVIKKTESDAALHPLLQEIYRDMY

[8] = target: T5, Peroxisome proliferator-activated receptor delta (Mus musculus, UniProt P35396); assay: Agonist activity at mouse PPARdelta transfected in HEK293 cells; format: functional, cell-based
T5 sequence (P35396 whole entry): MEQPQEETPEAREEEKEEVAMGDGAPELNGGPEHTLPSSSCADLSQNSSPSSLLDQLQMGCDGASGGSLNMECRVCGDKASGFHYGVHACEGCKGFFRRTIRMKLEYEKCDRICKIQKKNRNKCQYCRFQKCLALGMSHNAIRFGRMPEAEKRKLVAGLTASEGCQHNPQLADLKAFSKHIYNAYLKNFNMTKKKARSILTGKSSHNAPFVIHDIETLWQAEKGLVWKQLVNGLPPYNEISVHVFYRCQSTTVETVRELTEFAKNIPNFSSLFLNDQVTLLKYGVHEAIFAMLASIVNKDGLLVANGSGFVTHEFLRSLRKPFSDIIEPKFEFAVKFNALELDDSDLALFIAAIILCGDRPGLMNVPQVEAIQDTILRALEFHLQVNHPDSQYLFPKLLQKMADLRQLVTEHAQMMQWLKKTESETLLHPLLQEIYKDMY

[9] = target: Peroxisome proliferator-activated receptor alpha (Homo sapiens, UniProt Q07869, I272F); assay: Agonist activity at human PPARalpha containing mutant I272F domain transfected in HEK293 cells
Sequence of Peroxisome proliferator-activated receptor alpha (Homo sapiens, UniProt Q07869, I272F) (Q07869 whole entry I272F, the tested form may be a part): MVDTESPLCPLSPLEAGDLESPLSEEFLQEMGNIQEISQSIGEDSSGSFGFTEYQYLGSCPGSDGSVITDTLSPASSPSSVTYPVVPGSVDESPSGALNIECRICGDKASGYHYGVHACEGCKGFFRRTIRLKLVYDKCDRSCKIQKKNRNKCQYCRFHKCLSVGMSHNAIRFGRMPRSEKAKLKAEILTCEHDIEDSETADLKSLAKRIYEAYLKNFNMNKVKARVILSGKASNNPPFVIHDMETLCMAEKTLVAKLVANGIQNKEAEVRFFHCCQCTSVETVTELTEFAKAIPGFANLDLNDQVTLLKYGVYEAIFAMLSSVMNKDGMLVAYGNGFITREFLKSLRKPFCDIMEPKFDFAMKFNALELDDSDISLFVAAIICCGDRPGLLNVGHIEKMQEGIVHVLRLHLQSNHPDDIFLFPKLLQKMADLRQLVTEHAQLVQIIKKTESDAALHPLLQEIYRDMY

EC50 [1] [µM]	EC50 [2] [µM]	EC50 [3] [µM]	SMILES	other results
1.6	0.025	0.5	CCC(Cc1ccc(OC)c(C(=O)NCc2ccc(C(F)(F)F)c(F)c2)c1)C(=O)O (stereo not drawn)	
	0.07	0.7	CCC(Cc1ccc(OC)c(C(=O)NCc2ccc(C(F)(F)F)cc2)c1)C(=O)O (racemic)	

Further lines, the compound ahead of its results:

SMILES	EC50 [1] [µM]	EC50 [2] [µM]	EC50 [3] [µM]	other results
CCC(Cc1ccc(OC)c(CNC(=O)c2ccc(C(F)(F)F)cc2)c1)C(=O)O (stereo not drawn)	2	0.01	0.13	
CCC(Cc1ccc(F)c(C(=O)NCc2ccc(C(F)(F)F)cc2)c1)C(=O)O (stereo not drawn)				EC50 [4]: Not Active; EC50 [5]: Not Active; EC50 [6]: Not Active
CCC(Cc1ccc(OC)c(C(=O)NCc2ccc(C(F)(F)F)cc2F)c1)C(=O)O (stereo not drawn)	0.5	0.02	1	
CCC(Cc1ccc(OC)c(CNC(=O)c2ccc(F)c(C(F)(F)F)c2)c1)C(=O)O (stereo not drawn)	> 10			
CC[C@H](Cc1ccc(OC)c(CNC(=O)c2ccc(C(F)(F)F)c(F)c2)c1)C(=O)O	> 10	0.18	0.7	
CC[C@@H](Cc1ccc(OC)c(CNC(=O)c2ccc(C(F)(F)F)c(F)c2)c1)C(=O)O		0.01	0.04	EC50 [7]: 1 µM; EC50 [8]: 0.13 µM; EC50 [9]: 0.63 µM
